In paper PMC6539592, “Functional Analysis of Peptidyl-prolyl cis-trans Isomerase from Aspergillus flavus” (International Journal of Molecular Sciences, 2019) one finds inhibition data, which are given here for two molecules.

Structures are written as SMILES.

This test concerns the target T1, ppci1 (Aspergillus flavus, UniProt B8NRT5).
T1 construct: E. coli BL21(DE3), modified pRSFDuet-1; N-terminal 6xHis tag removed with PreScission protease
Kind of test: chymotrypsin-coupled PPIase assay, absorbance at […] nm. It counts as biochemical. As to conditions: 15 °C, HEPES pH 8.0; substrate succinyl-AAPF-p-nitroanilide; figure labels traces FK506-CsA and FK506-Rap, possibly combined.

T1 sequence (B8NRT5 1-122): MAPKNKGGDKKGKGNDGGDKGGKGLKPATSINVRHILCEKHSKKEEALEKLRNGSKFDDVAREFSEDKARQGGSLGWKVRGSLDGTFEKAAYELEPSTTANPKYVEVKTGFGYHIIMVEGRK

On to `C=CC[C@@H]1/C=C(\C)C[C@H](C)C[C@H](OC)[C@H]2O[C@@](O)(C(=O)C(=O)N3CCCC[C@H]3C(=O)O[C@H](/C(C)=C/[C@@H]3CC[C@@H](O)[C@H](OC)C3)[C@H](C)[C@@H](O)CC1=O)[C@H](C)C[C@@H]2OC` [FK506, Tacrolimus], for which the inhibition entry is on record as “activity of ppci1 was inhibited by these aforementioned drugs with constantly decreased absorption”.

As to `CO[C@H]1C[C@@H]2CC[C@@H](C)[C@@](O)(O2)C(=O)C(=O)N2CCCC[C@H]2C(=O)O[C@H]([C@H](C)C[C@@H]2CC[C@@H](O)[C@H](OC)C2)CC(=O)[C@H](C)/C=C(\C)[C@@H](O)[C@@H](OC)C(=O)[C@H](C)C[C@H](C)/C=C/C=C/C=C/1C` [Rap, Rapamycin], the inhibition entry was “We found that FK506, CsA and Rapamycin inhibit the protein activity of ppci1”.
